Consider 8 compounds from US6500856B2, “Cyclic AMP-specific phosphodiesterase inhibitors” (Icos Corporation, priority 1999, dated 2002).

The structures appear in SMILES notation. Read-outs that look alike come from different tables or passages of the source.

For one series, the system named is female Balb/c mice. Kind of series: Combined mouse endotoxin-stimulated TNFα release and locomotor activity assay (spontaneous mobility). As to conditions: i.p., 50 mg/kg dose, locomotor activity. It is filed as in vivo. The method, then:
(§1) The purpose of this study was to determine the efficacy of PDE4 inhibitors in vivo in an LPS mouse model together with a determination with respect to central nervous system (CNS) side-effects manifested by a decrease in spontaneous mobility.
(§2) The test animals were female Balb/c mice, having an average weight of about 20 g. The PDE4 inhibitors, formulated in 30% Cremophor® EL, were administered via intraperitoneal (i.p.) injections at doses of 0.1, 1.0, 10.0, and 100 mg/kg. Individual dose volumes (about 150 μL) were adjusted based on the body weights measured. One hour later, 5 mg/kg LPS in a final volume of 200 μL was injected via the tail vein to each animal. Ninety minutes following the LPS treatment, the animals were bled and serum samples were collected before being stored at −70° C. until assayed.
(§3) Movement of the X-Y plane, or rearina up on the hind legs, was quantified by counting the number of “light-beam” crosses per unit of time. A decrease in the number of activity events is directly proportional to the mobility or immobilization of the animal. The quantitative scoring correlated well with the subjective measurements described above.
(§4) The following table summarizes the locomotor activity assay (mobility, % activity) results obtained by the above-described method:
(§5) effective dose, in mg/kg, that decreases spontaneous mobility 50% of control.

Series [1] has as its system T1, recombinant human PDE4.
T1 construct: PDE4 IC50; other: human recombinant PDE4
The series is described as follows: PDE4 inhibition, recombinant human PDE4 (charcoal separation PDE assay). In kind it is biochemical. As for the experimental part: The compounds of structural formula (II) were tested for an ability to inhibit PDE4. The ability of a compound to inhibit PDE4 activity is related to the IC50 value for the compound, i.e., the concentration of inhibitor required for 50% inhibition of enzyme activity. The IC50 value for compounds of structural formula (II) were determined using recombinant human PDE4.
Phosphodiesterase activity of the preparations was determined as follows. PDE assays utilizing a charcoal separation technique were performed essentially as described in Loughney et al. (1996). In this assay, PDE activity converts [32P]cAMP or [32P]cGMP to the corresponding [32P]5′-AMP or [32P]5′-GMP in proportion to the amount of PDE activity present. The [32P]5′-AMP or [32P]5′-GMP then was quantitatively converted to free [32P]phosphate and unlabeled adenosine or guanosine by the action of snake venom 5′-nucleotidase. […] The assay was performed at 30° C. in a 100 μL reaction mixture containing (final concentrations) 40 mM Tris HCl (pH 8.0), 1 μM ZnSO4, 5 mM MgCl2, and 0.1 mg/mL bovine serum albumin (BSA). Alternatively, in assays assessing PDEl-specific activity, incubation mixtures further incorporated the use of 0.1 mM CaCl2 and 10 μg/mL calmodulin. PDE enzyme was present in quantities that yield <30% total hydrolysis of substrate (linear assay conditions). The assay was initiated by addition of substrate ([…] [32P]cAMP or cGMP), and the mixture was incubated for 12 minutes. Seventy-five (75) μg of Crotalus atrox venom then was added, and the incubation was continued for 3 minutes (15 minutes total). The reaction was stopped by addition of 200 μL of activated charcoal (25 mg/mL suspension in 0.1 M NaH2PO4, pH 4). After centrifugation (750×g for 3 minutes) to sediment the charcoal, a sample of the supernatant was taken for radioactivity determination in a scintillation counter and the PDE activity was calculated.
The table below illustrates the ability of compounds of formula (II) to inhibit PDE4 activity and TNFα release in vitro. In the following table, the IC50 values were determined against human recombinant PDE4.

For series [2], the system named is human peripheral blood lymphocytes (PBL). The series is described as follows: Lipopolysaccharide-stimulated TNFα release from human peripheral blood lymphocytes. It is filed as cell-based. The settings on record: LPS-stimulated TNFα release from human PBL. As for the experimental part:
The compounds of structural formula (II) also were tested for an ability to reduce TNFα secretion in human peripheral blood lymphocytes. The ability to reduce TNFα secretion is related to the EC50 values (i.e., the effective concentration of the compound capable of inhibiting 50% of the total TNFα).
To assess the ability of a compound to reduce TNFα secretion in human peripheral blood lymphocytes (PBL), the following tests were performed.
Heparinized blood (approximately 30 mL) drawn from human volunteers was mixed 1:1 with Dulbecco's modified phosphate-buffered saline. This mixture was mixed 1:1 with HISTOPAQUE® and centrifuged at 1,500 rpm at room temperature without braking in the swinging bucket of a Beckman model TJ6 centrifuge. Erythrocytes were centrifuged to the bottom of the tubes, and serum remained at the surface of the tubes. A layer containing lymphocytes sedimented between the serum and HISTOPAQUE® layers, and was removed by aspiration to a fresh tube. The cells were quantified and adjusted to 3×10^6 cells/mL and a 100 μL aliquot is placed into the wells of a 96 well plate. Test compounds and RPMI media (Gibco/BRL Life Sciences) are added to each of the wells 15 minutes prior to addition of bacterial LPS ([…]). The mixture was allowed to incubate for 20 hours at 37° C. in a humidified chamber. The cells then were separated by centrifuging at 800 rpm for 5 minutes at room temperature. An aliquot of 180 μL of supernatant was transferred to a new plate for determination of TNFα concentration. TNFα protein in the cell supernatant fluids was measured using a commercially available enzyme-linked immunosorbent assay (ELISA) (CYTOSCREEN® Immunoassay Kit from Biosource International).
The cell-based assay provided the following results for various pyrrolidine compounds of the present invention. The EC50 values (i.e., effective concentration of the compound capable of inhibiting 50% of the total TNFα) illustrate the ability of the present compounds to inhibit LPS-stimulated TNFα release from human PBL.

Series [3] relates to recombinant human PDE4. The settings on record: prior art value; read-out: IC50 with respect to inhibiting recombinant human PDE4 (reported); cited from earlier work.
Series [4] in a line: Combined mouse endotoxin-stimulated TNFα release and locomotor activity assay (spontaneous mobility). It is filed as in vivo. The settings on record: female, Balb/c, in vivo, ip, locomotor activity, read-out: ED50 (effective dose that decreases spontaneous mobility 50% of control). As for the experimental part: as §1, §2, §3, §4, §5
The conditions of series [5]: in vivo; cited from earlier work.

Turning to `CN/N=C(\C)C1(C)CN(C(=O)OC)CC1c1ccc(OC)c(OC2CCCC2)c1` (single isomer, unassigned) [Example 1a], the “Mobility (% activity at 50 mg/kg dose)” value with female Balb/c mice was determined as 64% activity. Also, the concentration for half-maximal inhibition (IC50) with recombinant human PDE4 [1] was found to be 0.116 µM. For the same compound, in series [2], a half-maximal response (EC50) required 0.076 µM.
For the compound `COc1ccc(C2CNC(=O)C2)cc1OC1CCCC1` (centres unmarked) [Rolipram], the IC50 in the series with recombinant human PDE4 [3] was around 0.2 µM.
Regarding `COC(=O)N1CC(c2ccc(OC)c(OC3Cc4ccccc4C3)c2)[C@](C)(/C(C)=N\O)C1` (mixture of isomers) [Example 3], the IC50 in the series with recombinant human PDE4 [1] turned out to be 0.189 µM. The compound also displayed an EC50 in series [2] (Homo sapiens, Lymphocyte) of 0.551 µM.
On to `COC(=O)N1CC(c2ccc(OC)c(OC3CCCC3)c2)[C@](C)(/C(C)=N\O)C1` (some centres unmarked) [Example 2a], for which the ED50 in series [4] was above 50 mg/kg. For the same compound, in the series on recombinant human PDE4 [1], the IC50 stood at 0.049 µM. For the same compound, the EC50 in series [2] (Homo sapiens, Lymphocyte) amounted to 0.281 µM.
The like results for `COC(=O)N1CC(c2ccc(OC)c(OC3CCCC3)c2)[C@@](C)(/C(C)=N\O)C1` (some centres unmarked) [Example 2b] were, in that order, 7 mg/kg, 0.0022 µM and 0.023 µM.
For `CN/N=C(\C)C1(C)CN(C(=O)OC)CC1c1ccc(OC)c(OC2CCCC2)c1` (single isomer, unassigned) [Example 1b], the “Mobility (% activity at 50 mg/kg dose)” value with female Balb/c mice turned out to be 6% activity. Further, in the series on recombinant human PDE4 [1], the IC50 amounted to 0.0022 µM. The compound further had an EC50 in series [2] of 0.0022 µM.
For `COc1ccc([C@@H]2CNC(=O)C2)cc1OC1CCCC1` [R-rolipram], the “Emetic potency relative to the (+)-enantiomer” value in series [5] is listed as “about ten-fold more emetic”.
Take `COC(=O)N1CC(c2ccc(OC)c(OC3CCCC3)c2)C(C)(C(C)=O)C1` (centres unmarked) [formula (I)]: in the series with recombinant human PDE4 [3], the IC50 is around 0.002 µM.
